Test [1] relates to rats with spasticity. The test is described as follows: Peripheral muscle resistance during computer-controlled ankle flexion in rats with ischemia-induced spasticity. Type of test: in vivo. On the procedure: (§1) After ischemia, animals with developed paraplegia were selected and maintained for 3-12 months. To identify the presence of spasticity, the following tests were performed at 7-14 day intervals as described below: 1) tonic EMG activity recorded from gastrocnemius muscle (i.e., stimulus-independent changes in EMG activity); 2) peripheral muscle resistance measurement during a computer controlled ankle-flexion and simultaneous EMG recording from gastrocnemius muscle (i.e., stimulus-dependent changes in EMG activity); and 3) motor evoked potential recording.
Peripheral muscle resistance was measured using a previously described system (O. Kakinohana, Neuroscience 1:141(3) (2006)). Briefly, animals are placed into a plastic restrainer and one hind paw attached by a tape to a metal plate driven by a computer-controlled stepping motor. The metal plate is equipped with a digital force transducer. The resistance of the ankle to flexion was measured during motor-driven ankle flexion and data collected directly to the computer.

In test [2] the test system is rats with spasticity. The test is described as follows: Electromyographic (EMG) recording from gastrocnemius muscle during ankle flexion in rats with ischemia-induced spasticity. The test is classed as in vivo. The settings on record: 100 mg/kg i.p., FIG. 1. On the procedure:
as §1
To record EMGs, two silver needle (22 G) electrodes (distance between recording electrodes=1 cm) were placed percutaneously into the gastrocnemius muscle. Electrodes were connected to a preamplifier (HS4 fiber optic BIOAMP HEADSTAGE, WPI) and amplified using DB4 fiber optic amplifier (WPI). Animals were then allowed to acclimate for 10 min and the EMG responses recorded before, during and after ankle flexion. Recorded signal was digitized by the Instrunet Model 100 Network A/D, acquired by the Instrunet Model 200 PCI controller (Omega, USA) and stored in PC for analysis.

Entries after “also recorded” stand apart in the source; their conditions may differ.

`N[C@@H](C(=O)N1CCCC1)[C@@H](O)c1ccncc1` [Compound A]: the “spasticity associated with transient ischemia of the spinal cord” value in the test with rats with spasticity [1] (100 mg/kg) is “inhibits the spasticity”. Besides, in the test with rats with spasticity [1] (100 mg/kg of Compound A, spasticity after transient spinal cord ischemia), the “muscle resistance during the period of ankle flexion” value is recorded as “decrease in muscle resistance”. Also, the “EMG response / EMG activity” value in the test on rats with spasticity [2] is on record as “corresponding changes in EMG activity; also recorded: inhibits EMG response”.

These data come from patent US8217059B2, “Compositions and methods for treating spasticity” (Allergan, Inc., priority 2009, dated 2012).
